# Measurements published in patent US11026953B2, “3-beta-hydroxy-5-alpha-pregnan-20-one for use in treatment of essential tremor” (ASARINA PHARMA AB, priority 2017, dated 2021).
# How the values were obtained:
# [1] = target: T1, human alpha4,beta3,delta GABAA receptor (Homo sapiens, UniProt P28472+P48169); assay: Patch-clamp (Dynaflow) current response in HEK-293 cells expressing the human alpha4,beta3,delta GABAA receptor; assay type: cell-based
# T1 construct: expressed in transfected cells
# Protocol: (§1) Assay for testing GABAA receptor effects of 3beta-hydroxy-5alpha-pregnan-20-one on human alpha1,beta,gamma and alpha4,beta,delta GABAA receptor subtype.
# (§2) In these tests the protocol was optimized to be similar to the physiological conditions in the synaptic cleft.
# (§3) Cell culture: HEK-293 cells, permanently transfected with the human alpha1,beta,gamma and alpha4,beta,delta GABAA receptor subtypes, were seeded at a density of 3×10^4/25 cm^2 in cellbind culture flask. The transfected cells were used for patch-clamp experiments 3 days after seeding. When using the cells for patch-clamp experiments the cells were washed twice with oxygen-bubbled extracellular (EC) solution (see below). About 5 mL EC was then added and the cells were kept in the incubator for about 15 minutes. After 15 minutes the cells came loose from the bottom of the flask and were separated by carefully sucking couple of times with a Pasteur pipette.
# (§4) DYNAFLOW™ system with Resolve chip was used for patch-clamp experiments: The electrophysiological recordings from HEK-293 cells were performed under voltage-clamp conditions using patch-clamp technique and the DYNAFLOW™ system (DYNAFLOW™ Pro II Platform Zeiss Axiovert 25; Cellectricon AB, Sweden) with Resolve chips as application system.
# (§5) Patch pipettes were pulled from borosilicate glass and polished to a resistance 2-5 MΩ when filled with suitable intracellular solution (IC) (pH was adjusted to 7.2) and immersed in bath solution (extracellular, EC) (pH is adjusted to 7.4). The recordings were made using an Axopatch 200B amplifier, a Digidata 1322A (Axon instruments, Foster city, USA). Data were acquired using the pCLAMP software sampled at 10 kHz, filtered at 2-10 kHz and analyzed with Clampfit (versions 9.0, both from Axon instruments, Foster city, USA). No higher series resistance than 20 MΩ between pipette and cell membrane was accepted. No series resistance compensation was used. The stability of series resistance was monitored repeatedly from the time course of capacitative transients during the experiments. The measured liquid-junction potential between EC and IC was subtracted in all data presented. An experiments were performed at room temperature (21-23° C.).
# (§6) All steroids were dissolved to the concentration of 6 mM in DMSO. […] End solutions were the solutions added into the wells of the chip.
# (§7) Electrophysiology: After compensating for the liquid junction potential a steady holding potential of −17 mV was used in all experiments. […] By using the holding potential of −17 mV and the intracellular solution with low chloride ion concentration the chloride ions flux into the cell when the receptors were activated.
# The DYNAFLOW™ system allowed application of solutions for as short as 40 ms up to minutes in time. […] Therefore, the first GABA application was always repeated twice and the second response was used in the analysis.
# Washout: GABA is quite soluble in water and easy to washout from the receptor. […] Steroids on the other hand were difficult to dissolve in water and also difficult to washout from the receptor. In the experiments, THDOC and 3alpha-OH-adiol were used as the positive GABAA receptor modulating steroids. With 2 minutes washout time, 200 nM THDOC and 3alpha-OH-adiol was completely washed out as shown by neither an accumulative nor a desensitization effect.
# (§8) Different incubation times were studied to achieve the optimal time for attain stable results and minimize the washout time.
# (§9) Biological evaluation—HEK-293 cells, permanently transfected with human alpha1,beta,gamma and alpha4,beta,delta GABAA receptor subtypes and expressing these GABAA receptors.
# Cell lines permanently expressing a functional human GABAA receptor was made in following steps. The GABAA receptor subunits alpha1,beta2,gamma2L or alpha4,beta3,delta including introduced Kozac sequences just before the start codons were subcloned into mammalian expression vectors containing Geneticin, Hygromycin B, and Zeocin resistance, respectively. […]
# [2] = target: T2, human alpha1,beta2,gamma2 GABAA receptor (Homo sapiens, UniProt P14867+P47870); assay: Patch-clamp (Dynaflow) current response in HEK-293 cells expressing the human alpha1,beta2,gamma2 GABAA receptor; assay type: cell-based; conditions: for Antagonism of THDOC enhanced GABA effect, single dose: 1 μM UC1010 + 30 μM GABA + 200 nM THDOC; for Imax, maximal antagonism of THDOC effect in concentration-dependent experiment: 0.1-1 μM UC1010 + 30 μM GABA + 200 nM THDOC, max reached at 1 μM; for Androstandiol effect by itself (baseline shift), current response in absence of GABA: no GABA
# T2 construct: expressed in transfected cells
# T2 sequence (P14867 28-456): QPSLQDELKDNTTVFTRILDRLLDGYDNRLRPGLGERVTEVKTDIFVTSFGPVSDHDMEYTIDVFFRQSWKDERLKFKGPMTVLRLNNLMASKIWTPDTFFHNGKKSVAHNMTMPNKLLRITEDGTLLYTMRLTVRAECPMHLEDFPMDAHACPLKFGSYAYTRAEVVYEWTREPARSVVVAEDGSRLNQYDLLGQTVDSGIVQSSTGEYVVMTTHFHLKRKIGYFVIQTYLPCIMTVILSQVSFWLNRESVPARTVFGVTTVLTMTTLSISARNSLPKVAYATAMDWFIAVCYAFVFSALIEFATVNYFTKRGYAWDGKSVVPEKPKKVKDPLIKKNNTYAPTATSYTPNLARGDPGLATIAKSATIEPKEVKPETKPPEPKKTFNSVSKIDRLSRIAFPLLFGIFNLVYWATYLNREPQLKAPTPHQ
# T2 sequence (P47870 26-512): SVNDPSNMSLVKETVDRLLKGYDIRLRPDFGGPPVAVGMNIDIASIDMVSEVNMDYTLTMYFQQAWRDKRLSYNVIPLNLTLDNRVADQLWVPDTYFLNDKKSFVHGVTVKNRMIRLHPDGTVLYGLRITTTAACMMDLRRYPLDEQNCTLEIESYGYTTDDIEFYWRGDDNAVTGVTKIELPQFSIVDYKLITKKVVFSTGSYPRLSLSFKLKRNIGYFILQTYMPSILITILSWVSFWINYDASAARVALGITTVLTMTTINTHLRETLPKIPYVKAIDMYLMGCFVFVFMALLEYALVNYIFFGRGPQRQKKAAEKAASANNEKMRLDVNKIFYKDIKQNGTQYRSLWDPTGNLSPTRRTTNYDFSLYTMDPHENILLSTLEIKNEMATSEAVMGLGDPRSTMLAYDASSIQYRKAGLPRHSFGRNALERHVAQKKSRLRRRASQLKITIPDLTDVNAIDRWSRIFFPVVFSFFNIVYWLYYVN
# T2 sequence (P18507 40-475 partner): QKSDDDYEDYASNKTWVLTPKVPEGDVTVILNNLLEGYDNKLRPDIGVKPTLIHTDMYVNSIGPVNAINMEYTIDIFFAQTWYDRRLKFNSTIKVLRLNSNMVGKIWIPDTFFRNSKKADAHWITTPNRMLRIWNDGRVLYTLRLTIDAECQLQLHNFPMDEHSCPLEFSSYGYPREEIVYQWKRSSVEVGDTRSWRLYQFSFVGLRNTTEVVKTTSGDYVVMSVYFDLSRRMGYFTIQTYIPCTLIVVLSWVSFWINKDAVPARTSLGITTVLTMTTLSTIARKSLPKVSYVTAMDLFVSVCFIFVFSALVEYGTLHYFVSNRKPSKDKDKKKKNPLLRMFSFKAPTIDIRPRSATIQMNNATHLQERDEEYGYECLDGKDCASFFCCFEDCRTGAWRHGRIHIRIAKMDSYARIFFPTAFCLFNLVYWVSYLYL
# Protocol: as §1, §2, §3, §4, §5, §6, §7
# The DYNAFLOW™ system allowed application of solutions for as short as 40 ms up to minutes in time.
# In the experiments, THDOC and 3alpha-OH-adiol were used as the positive GABAA receptor modulating steroids.
# as §8, §9
# Cell lines permanently expressing a functional human GABAA receptor was made in following steps. The GABAA receptor subunits alpha1,beta2,gamma2L or alpha4,beta3,delta including introduced Kozac sequences just before the start codons were subcloned into mammalian expression vectors containing Geneticin, Hygromycin B, and Zeocin resistance, respectively. A HEK-293 cell line stably expressing the three GABAA receptor subunits was produced by transfection of the subunits one at a time.
# [3] = essential tremor, cited from earlier work
# [4] = listed as 3beta-hydroxy-5alpha-pregnan-20-one
# [5] = HEK293, read-out: Emax, androstandiol enhancement of GABA mediated current
# T1 sequence (P48169 36-554): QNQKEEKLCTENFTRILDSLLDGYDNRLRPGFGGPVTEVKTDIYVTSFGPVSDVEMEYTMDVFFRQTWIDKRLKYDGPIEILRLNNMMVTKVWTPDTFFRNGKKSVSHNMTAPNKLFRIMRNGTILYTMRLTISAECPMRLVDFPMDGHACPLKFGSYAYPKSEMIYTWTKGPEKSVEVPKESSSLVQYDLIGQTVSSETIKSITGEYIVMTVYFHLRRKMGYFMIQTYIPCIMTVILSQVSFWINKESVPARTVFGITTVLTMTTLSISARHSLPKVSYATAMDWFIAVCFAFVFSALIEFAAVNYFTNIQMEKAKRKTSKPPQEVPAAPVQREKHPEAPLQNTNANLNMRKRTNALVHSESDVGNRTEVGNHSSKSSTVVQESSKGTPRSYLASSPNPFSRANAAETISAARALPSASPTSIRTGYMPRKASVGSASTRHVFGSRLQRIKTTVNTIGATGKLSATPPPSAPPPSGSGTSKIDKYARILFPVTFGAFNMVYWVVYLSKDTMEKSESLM
# T1 sequence (P28472 26-473): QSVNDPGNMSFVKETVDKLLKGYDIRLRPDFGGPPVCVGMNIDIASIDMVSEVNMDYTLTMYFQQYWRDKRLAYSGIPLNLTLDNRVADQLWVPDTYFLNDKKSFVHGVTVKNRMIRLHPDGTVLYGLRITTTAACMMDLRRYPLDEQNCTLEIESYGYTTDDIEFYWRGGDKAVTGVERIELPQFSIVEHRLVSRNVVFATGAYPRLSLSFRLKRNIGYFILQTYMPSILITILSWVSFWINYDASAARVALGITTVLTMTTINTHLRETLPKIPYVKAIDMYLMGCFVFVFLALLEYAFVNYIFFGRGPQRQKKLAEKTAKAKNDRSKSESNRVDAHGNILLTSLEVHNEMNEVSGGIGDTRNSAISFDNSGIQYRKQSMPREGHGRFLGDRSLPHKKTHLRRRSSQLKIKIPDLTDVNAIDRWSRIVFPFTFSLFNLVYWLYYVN
# T1 sequence (O14764 17-452 partner limits assumed): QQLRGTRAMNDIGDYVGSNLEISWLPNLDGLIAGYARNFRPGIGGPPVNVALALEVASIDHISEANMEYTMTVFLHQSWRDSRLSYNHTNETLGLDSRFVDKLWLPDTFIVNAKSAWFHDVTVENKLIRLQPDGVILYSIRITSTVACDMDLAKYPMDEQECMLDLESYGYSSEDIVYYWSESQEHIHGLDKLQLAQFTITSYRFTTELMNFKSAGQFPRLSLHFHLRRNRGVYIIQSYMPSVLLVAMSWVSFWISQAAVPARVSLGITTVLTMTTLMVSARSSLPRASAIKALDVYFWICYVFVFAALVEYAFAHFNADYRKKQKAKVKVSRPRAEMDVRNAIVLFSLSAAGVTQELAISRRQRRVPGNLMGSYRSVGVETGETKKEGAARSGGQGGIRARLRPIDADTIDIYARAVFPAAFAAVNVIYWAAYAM
smiles,measurement,setting,value
"CC(=O)[C@H]1CC[C@H]2[C@@H]3CC[C@H]4C[C@@H](O)CC[C@]4(C)[C@H]3CC[C@]12C [UC1010, 3beta-hydroxy-5alpha-pregnan-20-one]",Effect of 1 μM UC1010 on 3 μM GABA response,"[1]; 1 μM UC1010, 3 μM GABA, Mean ± SEM, N=11, NS",−6.7 ± 3.3%
same,Effect of 1 μM UC1010 on 0.6 μM Androstandiol + 3 μM GABA,"[1]; 1 μM UC1010, Mean ± SEM",−18 ± 2.0%
same,Effect of 1 μM UC1010 on 0.8 μM Androstandiol + 3 μM GABA,"[1]; 1 μM UC1010, Mean ± SEM",−22 ± 2.6%
same,Effect of 1 μM UC1010 on 0.1 μM THDOC alone baseline,"[1]; 1 μM UC1010, THDOC induced baseline shift without GABA, Mean ± SEM",−43 ± 3.5%
same,"Effect of UC1010 on GABA-mediated current response, GABA alone (in words)","[1]; 1 μM UC1010, data not shown",without any significant effect
same,Effect of 1 μM UC1010 on 0.1 μM THDOC + 3 μM GABA,"[1]; 1 μM UC1010, steady state, Mean ± SEM",−26 ± 2.4%
same,"Effect of the compound by itself, current response","[1]; 1 μM, no GABA, no THDOC, N=11, NS vs EC solution",−0.4±0.3 pA
same,"Antagonism of THDOC enhanced GABA effect, single dose",[2],−21 ± 4.6%
same,"Antagonism of THDOC enhanced GABA effect, single dose",[2]; [4],−22.3±5.3%
same,Modulatory effect of UC1010 on GABA response,"[2]; 1 μM UC1010 + 30 μM GABA, vs GABA alone, NS, n=9",10.3±7.8%
same,Effect of 1 μM UC1010 on 8 μM Androstandiol + 30 μM GABA,"[2]; 1 μM UC1010, steady state (phasic effect), Mean ± SEM",−30 ± 1.7%
same,"Effect of 1 μM UC1010 on 8 μM Androstandiol, baseline shift","[2]; 1 μM UC1010, tonic effect without GABA, Mean ± SEM",−33 ± 7.6%
same,"Imax, maximal antagonism of THDOC effect in concentration-dependent experiment",[2],−21%
same,"Imax, maximal antagonism of THDOC effect in concentration-dependent experiment",[2]; [4],−21±4.6%
"C[C@]12CC[C@@H](O)C[C@@H]1CC[C@@H]1[C@@H]2CC[C@]2(C)C(O)CC[C@@H]12 (stereo partly drawn) [Androstandiol, 3alpha-hydroxy-5alpha-androstan-17-ol]","Potency at alpha4,beta3,delta relative to alpha1,beta2,gamma2 (higher)",[1]; 0.38 μM vs. 3.4 μM,10 times
same,"Androstandiol baseline shift, current response in absence of GABA","[1]; 3 μM androstandiol, no GABA, Mean ± SEM",+8 ± 3.6 pA
same,"Androstandiol baseline shift, current response in absence of GABA","[1]; 10 μM androstandiol, no GABA, Mean ± SEM",+13 ± 4.8 pA
same,Emax,[1]; [5],142%
same,"Androstandiol effect by itself (baseline shift), current response in absence of GABA","[2]; 3 μM androstandiol, Mean ± SEM",+8 ± 3.6 pA
same,"Androstandiol effect by itself (baseline shift), current response in absence of GABA","[2]; 8 μM androstandiol, Mean ± SEM",+13 ± 2.3 pA
same,"Androstandiol effect by itself (baseline shift), current response in absence of GABA","[2]; 10 μM androstandiol, Mean ± SEM",+11 ± 1.5 pA
same,"Androstandiol effect by itself (baseline shift), current response in absence of GABA","[2]; 30 μM androstandiol, Mean ± SEM",+24 ± 6.8 pA
same,"Androstandiol effect by itself (baseline shift), current response in absence of GABA","[2]; 100 μM androstandiol, Mean ± SEM",+43 ± 5.7 pA
same,Emax,[2]; [5],281%
same,Potency relative to THDOC in enhancing the effect of GABA (less potent),[2]; androstandiol vs THDOC,48 times
CCO [Alcohol],Reduction in tremor scores,[3]; only during a short period (30 minutes) with a rebound later,50%
"CCC1(c2ccccc2)C(=O)NCNC1=O [Primidone, primidone]",Reduction of tremor scores,[3],35-50%
Cc1nnc2n1-c1ccc(Cl)cc1C(c1ccccc1)=NC2 [alprazolam],Reduction of tremor scores,[3],25%
"C[C@]12CC[C@@H](O)C[C@H]1CC[C@@H]1[C@@H]2CC[C@]2(C)[C@@H](C(=O)CO)CC[C@@H]12 [THDOC, Tetrahydrodeoxycorticosterone]","THDOC baseline shift, current response in absence of GABA","[1]; 0.03 μM THDOC, no GABA, Mean ± SEM",+5 ± 3.3 pA
same,"THDOC baseline shift, current response in absence of GABA","[1]; 0.1 μM THDOC, no GABA, Mean ± SEM",+15 ± 9.5 pA
same,"THDOC baseline shift, current response in absence of GABA","[1]; 0.3 μM THDOC, no GABA, Mean ± SEM",+12 ± 7.9 pA
same,"THDOC baseline shift, current response in absence of GABA","[1]; 1 μM THDOC, no GABA, Mean ± SEM",+69 ± 35 pA
same,"Emax, THDOC enhancement of GABA mediated current",[1]; 3 μM GABA,297%
same,EC50,"[1]; read-out: EC50, THDOC enhancement of GABA mediated current, 3 μM GABA",47 nM
same,"Imax/Emax, THDOC enhancement of GABA mediated current","[2]; 0.03-1 μM THDOC + 30 μM GABA, control 30 μM GABA set to 0",+115%
